This note sets out measurements from paper PMC6608564 (Journal of the Endocrine Society, 2019).

Data set [1] in a line: Pharmacokinetic measurement by mass spectrometry in mice. It is filed as in vivo, C57BL/6 mice.
Data set [2] is described as follows: Food intake study with free-hand ICV injection. The class given is in vivo, male C57BL/6 mice. The note with it: 3 μg per mouse ICV.
A short description of data set [3]: Rat blood pressure telemetry. The class given is in vivo, DIO male Long-Evans rats. The note with it: IP 0.3, 1, 3 mg/kg, DIO Long-Evans rats.
A short description of data set [4]: Chronic OXT analog treatment in DIO mice. It is filed as in vivo, C57BL/6 DIO mice. The note with it: vs vehicle.
A further data set concerns the target T1, human OXTR (Homo sapiens, UniProt P30559).
T1 sequence (P30559 1-389): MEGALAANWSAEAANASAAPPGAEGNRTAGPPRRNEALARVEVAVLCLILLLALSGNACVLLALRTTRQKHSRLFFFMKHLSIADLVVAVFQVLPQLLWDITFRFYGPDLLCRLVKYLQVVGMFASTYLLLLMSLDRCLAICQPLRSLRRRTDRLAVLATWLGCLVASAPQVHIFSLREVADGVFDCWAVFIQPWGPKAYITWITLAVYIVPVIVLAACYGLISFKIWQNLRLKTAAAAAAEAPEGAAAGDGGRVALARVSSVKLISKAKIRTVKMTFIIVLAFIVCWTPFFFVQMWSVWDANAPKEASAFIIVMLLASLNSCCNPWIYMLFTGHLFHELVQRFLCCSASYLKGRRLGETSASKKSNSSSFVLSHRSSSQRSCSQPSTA
Kind of data set: FLIPR calcium assay, AV12 cells stably expressing human OXTR. It is filed as cell-based. The note with it: Fig. 1 and Dryad data [67]; for receptor selectivity against vasopressin receptors (in words): OXTR vs V1a, V1b (FLIPR) and V2 (cAMP); for OXTR activity / potency (in words): in vitro OXTR assay.

A short description of a further data set: Acute food intake study. It is filed as in vivo, male C57BL/6 mice. The note with it: conivaptan 0.5 mg/kg IP coadministered with OXT 2 mg/kg IP, Fig. 3F.
[5] abbreviates: C57BL/6, mouse, plasma, ip, 1 mg/kg.

Bounds are passed on as bounds.

`CC[C@H](C)[C@@H]1NC(=O)[C@H](Cc2ccc(O)cc2)NC(=O)[C@@H](N)CSSC[C@@H](C(=O)N2CCC[C@H]2C(=O)N[C@@H](CC(C)C)C(=O)NCC(N)=O)NC(=O)[C@H](CC(N)=O)NC(=O)[C@H](CCC(N)=O)NC1=O` [OXT, oxytocin]: the “time until plasma level dropped below detection” value in data set [1] (1 mg/kg IP, single dose, Fig. 2A) was below 3 h. In data set [1] (setting [5]), the Tmax is around 30 min and the half-life was below 30 min. For the same molecule, the “behavior during first hour after ICV injection (vocalization, grooming)” value in data set [2] is listed as “clinical signs of behavioral distress”. Moreover, the “mean arterial pressure (MAP)” value in data set [3] is “dose-dependently caused a statistically significant increase of MAP”. Moreover, the serum potassium level entry in data set [4] is “significantly lower”.

carbetocin [OXT^Butyryl]: at human OXTR, the “receptor selectivity against vasopressin receptors (in words)” value was “increased receptor selectivity against vasopressin receptors” and the “OXTR activity / potency (in words)” value is on record as “without affecting OXTR activation”.

For TC OT39, at human OXTR, the “receptor selectivity against vasopressin receptors (in words)” value was “high degree of OXTR selectivity”; the “OXTR activity / potency (in words)” value was “significantly decreased potency (EC50) and efficacy (Emax)”.

Take `Cc1nc2c([nH]1)-c1ccccc1N(C(=O)c1ccc(NC(=O)c3ccccc3-c3ccccc3)cc1)CC2` [conivaptan]: in “Acute food intake study”, the “effect on OXT-induced food intake suppression” value is reported as “abolished OXT’s effect on food intake suppression”.

The Tmax is the time from dosing to the highest level. One may read the half-life as how long it takes for the measured level to halve.
